Data on one compound can be found in patent US11832638B2, “N-acyl derivatives of gamma amino-butyric acid and beta alanine as food flavouring compounds” (GIVAUDAN SA, priority 2012, dated 2023).

The structures appear in SMILES notation.

The nature of assay [1]: Comparison in a strawberry drink. To be noted: 0.5 ppm, 7% sucrose, 0.1% citric acid, strawberry flavour 0.015%. An excerpt:
Comparison in a Strawberry Drink
Base is 7% sucrose, 0.1% citric acid, and a proprietary strawberry flavour @0.015%

Assay [2] can be described thus: Strawberry flavoured sugar sweetened yoghurt. The settings on record: 2 ppm, 1.5% fat yoghurt base, 8% sucrose, strawberry flavour 0.015%. An excerpt: Strawberry Flavoured Sugar Sweetened Yoghurt
The base consisted of a 1.5% fat yoghurt base, sweetened with 8% sucrose by weight, flavoured with a proprietary strawberry flavour @ 0.015%.

In the case of `CCCCCCCCCCCCCCCCCC(=O)NCCCC(=O)O` [C18:0-gaba], the taste description result in assay [1] is “mild creamy, fruity, juicy and long lasting”; in assay [2], “juicy full, jammy”.
